For orientation: melting point means the temperature of the solid-liquid transition.

The compound `CN(C(=O)N1Cc2nc(Cc3ccccc3)n(Cc3ccccc3)c2C[C@H]1CO)c1ccccc1` came in with a melting point of 80 to 87 °C.
Regarding `O=C(Nc1nccs1)c1c(C(F)(F)F)nc(-c2ccccc2)c(-c2ccccc2)c1O`, the melting point was 256 °C.
As for `CCCCCCCCCCCCCCCCCCSc1ccc(O)cc1`, the melting point was found to be 95 °C.
`O=Cc1ccc2c(c1)C1(c3ccccc3-2)c2ccccc2-c2ccc(C=O)cc21`: the melting point was greater than 300 °C.
The result for `OCc1cncn1C1CCCCC1` reads 133 to 134 °C; that for `Cc1cc(OCCN2CCCCC2)ccc1NC(=O)NC1C2CC3CC(C2)CC1C3` (configuration not stated), 196 °C.
`CC(C)(C)NC(=NC#N)Nc1cccnc1` came in with a melting point of 205 to 206 °C.
In the case of `CC(C)c1ccc(S(=O)(=O)Nc2ccc(N3CCC(NC(=O)OC(C)(C)C)CC3)nc2)cc1`, the melting point lay in the range of 208 to 209 °C.
Next, `CC(=O)C(=C1SCCCN1C(C)=O)[N+](=O)[O-]`: 73.5 to 76 °C; `CCN(CCNC(=O)c1cnc2cc(I)ccc2n1)CCNc1cccc(Br)n1`: 49 to 51 °C; `CN(CC(=O)O)C(=O)CCc1nc2c(F)c(F)cc(F)c2s1`: 138 to 140 °C.
The result for `CC(C)c1cc(C(=O)Nc2ccc(C(=O)O)cn2)oc1C(C)C` reads 278 to 279 °C; that for `COc1cnc(C)c(C)c1OC`, 36 to 38 °C.
Compound `O=C1CCN(Cc2ccccc2)CC1=C(c1ccccc1)c1ccccc1` showed a melting point of 135 to 137 °C.
`CC(CCCO)C1CC=C2C3=C(CCC21C)C1(C)CCC(O)C(C)(C)C1CC3` (configuration not stated): the melting point lay in the range of 203 to 208 °C.
Compound `Fc1ccc(NC(=S)Nc2ncccc2OCc2c(F)cccc2Cl)cc1` displayed a melting point of 146 to 148 °C.
Consider `CC(=O)OCC(=O)C1(O)CCC2C3CCC4=CC(=O)CCC4(C)C3=CCC21C` (configuration not stated), for which the melting point was 234 °C.
`O=C1OC(c2ccccc2)(c2ccc(-c3ccccc3)cc2)C(O)=C1OCc1ccccc1` (configuration not stated) returned a melting point of 190 to 195 °C.
Regarding `Cc1cc(C)cc(-c2nc(NC(=O)c3ccccc3)sc2-c2ccncc2)c1`, the melting point fell in the range of 285 to 286 °C.
`COC(=O)C(Cc1ccccc1)Oc1ccc2cc(CNC(=O)c3oc4ccccc4c3C)ccc2c1Br` (configuration not stated): the melting point is 129 to 133 °C.
For the compound `CC(C)(C)NCC(O)c1ccc(N)c(C(F)(F)F)c1` (configuration not stated), the melting point fell in the range of 145 to 147 °C.
`O=C(CCc1c(C(=O)OCCN2CCOCC2)[nH]c2cc(Cl)cc(Cl)c12)OCCN1CCOCC1` came in with a melting point of 110 to 112 °C.
The compound `O=P(O)(O)CCCCCCCCC(F)(F)C(F)(F)C(F)(F)C(F)(F)F` returned a melting point of 87 to 89 °C.
With `CCN(C(=O)C1CC1)c1cnn2ccccc12`, the melting point lay within 83 to 86 °C.
Consider `O=C(c1ccccc1)n1cc(F)c(=O)n(C(=O)c2ccccc2)c1=O`, for which the melting point is 195 °C.
As to `COC(=O)C1Oc2ccccc2Cc2cccc(C)c2O1` (configuration not stated), the melting point lay within 104 to 105 °C.
As to `C[C@H]1c2onc(-c3ccc(Cl)cc3)c2CCC[C@H]1C(=O)O` (relative stereo), the melting point fell in the range of 149 to 150 °C.
`COc1c(C)c2c(c(C)c1NC(=O)CC(C)(C)C)C(c1ccc(C(C)C)cc1)CO2` (configuration not stated) had a melting point of 162 to 163 °C.
In the case of `CN(C)c1ccc(-c2nc3c(N[C@H]4[C@@H](C(N)=O)[C@@H]5C=C[C@H]4C5)ccnc3[nH]2)cc1`, the melting point lay within 245 to 251 °C.
The result for `CO/C(=C\C=C\c1cc2cc(Br)ccc2[nH]1)C(=O)O` reads 208 to 210 °C.
Take `CC(C)(C)OC(=O)c1ccc(N(Cc2ccc(C(=O)O)cc2)Cc2cc(Br)ccc2OCc2ccccc2)cc1`: the melting point amounted to 110 °C.
The compound `Cc1nnc(-c2ccc3occc3c2)o1` came in with a melting point of 159 to 160 °C.
Compound `CC(=O)Nc1ccccc1Oc1ccc(C#N)c(C#N)c1` displayed a melting point of 152 to 154 °C.
Next, `O=C(Nc1cc(Cl)cc(Cl)c1)c1cccc(Cl)c1O`: 255 to 256 °C; `Cc1ccc(S(=O)C(C(=O)OC(C)(C)C)C(O)CC(OC2CCCCO2)c2ccc(Oc3ccccc3)cc2)cc1` (configuration not stated): 140 to 145 °C; `CCOC(=O)c1cncc(C(=O)NC(C)c2ccccc2)c1` (configuration not stated): 159 to 161 °C.
On to `CCCn1c(=Nc2ccccc2)sc2ncccc2c1=O`, for which the melting point was 94 to 95 °C.
In turn, `CCC(=NNC(=O)OC(C)(C)C)c1ccncc1` showed a melting point of 170 °C.
The result for `C#Cc1cc(OC)c(OC)c(OC)c1` reads 68 to 70 °C.
`O=C(Oc1ccc(Oc2ccc(C(F)(F)F)cn2)cc1)N1CCN(c2cnccn2)CC1` displayed a melting point of 160 to 161 °C.
Consider `Nc1ncnc2sc(CCO)c(-c3ccc(NC(=O)Nc4cccc(C(F)(F)F)c4)cc3)c12`, for which the melting point lay within 155 to 158 °C.
In the case of `CCc1noc(-c2cc3c4ccccc4n(CCCN4CCC(O)(c5ccccc5)CC4)c3cn2)n1`, the melting point is 169 to 170 °C.
Compound `CC(C)OCC(O)CN1CCC2(CC1)CSC1=C(O2)c2ccccc2C(=O)C1=O` (configuration not stated) had a melting point of 97 to 99 °C.
Regarding `COc1cc(-c2csc3c2OCCO3)c(OC)c2c(OC)cc(-c3csc4c3OCCO4)c(OC)c12`, the melting point is 300 to 303 °C.
Next, `N#Cc1cc(C(=O)O)ccc1F`: 177 to 178 °C; `CCCCC[C@@H](CNC(=O)Nc1c(OCC)ncnc1N(C)C)c1cccc2c1OCO2`: 62 to 64 °C; `CCCCCS(=O)(=O)NC(=O)/C=C/c1ccc(OCCO[Si](C(C)C)(C(C)C)C(C)C)cc1Oc1ncc(C(F)(F)F)cc1Cl`: 106 to 108 °C.
Next, `CC(C)(C)C(=C=CCl)c1ccccc1-c1ccccc1`: 85 to 86 °C.
Next, `Cc1cc([N+](=O)[O-])ccc1N=C1C2CC3CC(C2)CC(C3)N1C1CCCC1`: 149 to 152 °C.
`CCOc1ccc2[nH]cc(CC(C)(C(=O)OC)[N+](=O)[O-])c2c1` (racemic) registered a melting point of 80 to 82 °C.
For the compound `CCC(=O)C=Cc1ccc(OCc2ccccc2)cc1`, the melting point fell in the range of 123 to 125 °C.
For the compound `CO[C@H]1O[C@@H](C)[C@@H]2[C@H](O)[C@H]3CCCC[C@@H]3C[C@H]12`, the melting point fell in the range of 123 to 124 °C.
The result for `Cc1nc(N)nc(N)c1N=Nc1ccc(I)cc1` reads 243 to 244 °C.
The compound `O=c1oc(=O)n(Cc2ccc(F)cc2)c2ccccc12` returned a melting point of 142 to 145 °C.
Next, `COC(=O)c1ccc2c(c1)Nc1nccnc1S2`: 265 to 268 °C; `COc1cccc(CNC(=O)c2cc3c(=O)n(CC#N)c(=O)n(C)c3s2)c1`: 159 to 163 °C.
`c1ccc(-c2ccc(CCN3CCN(c4ccccc4)CC3)s2)cc1` had a melting point of 124 °C.
Compound `CCc1cn(C2CC(O)C(CNC)O2)c(=O)[nH]c1=O` (configuration not stated) displayed a melting point of 145 to 147 °C.
In turn, `CN(CCNc1ccn2ncc(-c3cccs3)c2n1)C(=O)OC(C)(C)C` showed a melting point of 140 to 141 °C.
In turn, `Cc1c(CNCC(C)C)[nH]c2c(C)c(NC(=O)c3ccc(OC[C@@H]4CCCO4)cc3)ccc12` displayed a melting point of 118 to 119 °C.
Next, `CCCCC[C@H]1CC[C@H](c2ncc([C@H]3CC[C@H](CCC)CC3)cn2)CC1`: 98 °C.
The compound `CC(C)(C)c1cc(CCc2ccccc2NC(=O)NCC(C)(C)c2ccc(F)cc2)cc(C(C)(C)C)c1O` returned a melting point of 179 to 180 °C.
Next, `C[C@@H]1CCCN1CCCN1CCN(CCN2CCCCC2)C1=C(C#N)C#N`: 70 to 71 °C; `C/C=C/CNc1cccc(-c2ccnc3c(C(=O)c4cccs4)cnn23)c1`: 110 to 113 °C; `Fc1ccc(Cn2c(N3CCC(Nc4nc5ccccc5n4Cc4ccccc4)CC3)nc3ccccc32)cc1`: 164 °C.
Take `O=C(O)c1ccc2c(c1)S(=O)(=O)c1ccccc1C2`: the melting point was 229 to 248 °C.
Next, `CCOC(=O)c1cn(-c2ncnn2C)c2nc(Cl)c(F)cc2c1=O`: 256 to 263 °C; `N#Cc1cc(NC(=O)c2ccn(-c3ccc(Cl)cc3)c2)ccc1N1CCN(C2CCOCC2)CC1`: 224 °C.
The result for `Cc1nc(Cn2nnnc2-c2cccc(Cl)c2Cl)cs1` reads 156 to 158 °C; that for `COCOc1cc(OCOC)c2c(=S)cc(C)oc2c1`, 109 to 110 °C; that for `O=CN1[C@@H](c2cccnc2)SC[C@H]1C(=O)O`, 250 °C.
In turn, `CC(C)(O)C(O)c1ccc(-c2ccc(/C(=C/C3CCOCC3)c3ccc(S(=O)(=O)C4CC4)cc3)[nH]2)nc1` (configuration not stated) came in with a melting point of 196 to 197 °C.
`Cc1cccc(NC(=O)Nc2ccc(-c3c(C(C)C)sc4ncnc(N)c34)cc2)c1` returned a melting point of 169 to 171 °C.
Next, `COc1cc([N+](=O)[O-])c(C=O)cc1OCc1ccccc1`: 131 to 132 °C; `CS(=O)(=O)c1cccc(NC(=O)c2ccccc2O)c1`: 210 to 212 °C; `NS(=O)(=O)c1ccc(-c2cnn(CC(F)(F)F)c(=O)c2-c2ccc(F)cc2)cc1`: 193 to 195 °C.
The compound `CN(C)c1ncc(-c2cccc(-n3cnc4cc(-c5ccco5)ccc43)c2)cn1` showed a melting point of 170 to 172 °C.
In turn, `COC(=O)c1nc(-c2ccc(Cl)cc2)n(-c2ccc(Cl)cc2Cl)n1` returned a melting point of 153 to 154 °C.
Turning to `CS(=O)(=O)N1CCC(Nc2ncc(C(=O)c3ccccc3)c(N)n2)CC1`, the melting point lay within 249 to 250 °C.
The result for `c1ccc(OCCSCc2ncc(-c3ccc(OCCCN4CCCCCC4)cc3)o2)cc1` reads 32 to 35 °C.
Take `Cc1ccc(S(=O)(=O)OC2CCc3[nH]c4ccc(C)cc4c3C2)cc1` (configuration not stated): the melting point lay within 125 to 127 °C.
The result for `COc1ccc(-c2nn(CC=Cc3ccccc3)c(=O)cc2-c2ccccc2)cc1` reads 136 to 137 °C.
Compound `CSc1nccc(-c2ccccc2)n1` registered a melting point of 87 to 89 °C.
As to `CC1(Br)C(Br)=C(Br)C(Br)=C1Br`, the melting point lay within 60 to 61 °C.
In turn, `CCC1NC(=O)C2=C1c1ccc(Cl)cc1C(c1ccccc1Cl)=NC2` (configuration not stated) returned a melting point of 233 to 235 °C.
Take `COc1ccc2sc(C(N)=O)c(S(=O)(=O)C(C)C)c2c1`: the melting point was 169 to 170 °C.
For `COc1cc(OCc2ccncc2)ccc1/C=C/c1cc(/C=C/c2ccc3cc[nH]c3c2)n[nH]1`, the melting point was 103 to 118 °C.
